Results: patent publication US9399647B2, “Proteasome activity modulating compounds” (Proteostasis Therapeutics, Inc., priority 2012, dated 2016)

Target: USP14 (Homo sapiens, UniProt P54578)
Test: USP14 inhibition assay
Format: biochemical
Conditions: average value from three experimental determinations; reported as potency bands; read-out: IC50 (USP14 inhibition)
Source text: The IC50 values in the Table below represent the average value from three experimental determinations.
These IC50 values represent the average value from three experimental determinations.

Chain of USP14 (P54578 whole entry): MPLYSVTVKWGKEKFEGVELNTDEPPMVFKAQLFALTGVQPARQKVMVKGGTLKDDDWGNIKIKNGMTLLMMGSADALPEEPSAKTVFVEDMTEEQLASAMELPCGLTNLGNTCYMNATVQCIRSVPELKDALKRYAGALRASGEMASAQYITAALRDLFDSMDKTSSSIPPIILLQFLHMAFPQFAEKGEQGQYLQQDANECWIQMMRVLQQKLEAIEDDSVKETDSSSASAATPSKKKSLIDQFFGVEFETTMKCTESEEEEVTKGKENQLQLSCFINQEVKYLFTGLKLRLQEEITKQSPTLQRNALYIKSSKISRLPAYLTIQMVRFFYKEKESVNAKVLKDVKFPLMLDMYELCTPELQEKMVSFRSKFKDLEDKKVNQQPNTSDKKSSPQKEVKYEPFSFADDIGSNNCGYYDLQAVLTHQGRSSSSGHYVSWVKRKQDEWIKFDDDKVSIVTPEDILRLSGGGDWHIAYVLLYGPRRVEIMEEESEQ
Chain of USP14 (Q13200 whole entry partner): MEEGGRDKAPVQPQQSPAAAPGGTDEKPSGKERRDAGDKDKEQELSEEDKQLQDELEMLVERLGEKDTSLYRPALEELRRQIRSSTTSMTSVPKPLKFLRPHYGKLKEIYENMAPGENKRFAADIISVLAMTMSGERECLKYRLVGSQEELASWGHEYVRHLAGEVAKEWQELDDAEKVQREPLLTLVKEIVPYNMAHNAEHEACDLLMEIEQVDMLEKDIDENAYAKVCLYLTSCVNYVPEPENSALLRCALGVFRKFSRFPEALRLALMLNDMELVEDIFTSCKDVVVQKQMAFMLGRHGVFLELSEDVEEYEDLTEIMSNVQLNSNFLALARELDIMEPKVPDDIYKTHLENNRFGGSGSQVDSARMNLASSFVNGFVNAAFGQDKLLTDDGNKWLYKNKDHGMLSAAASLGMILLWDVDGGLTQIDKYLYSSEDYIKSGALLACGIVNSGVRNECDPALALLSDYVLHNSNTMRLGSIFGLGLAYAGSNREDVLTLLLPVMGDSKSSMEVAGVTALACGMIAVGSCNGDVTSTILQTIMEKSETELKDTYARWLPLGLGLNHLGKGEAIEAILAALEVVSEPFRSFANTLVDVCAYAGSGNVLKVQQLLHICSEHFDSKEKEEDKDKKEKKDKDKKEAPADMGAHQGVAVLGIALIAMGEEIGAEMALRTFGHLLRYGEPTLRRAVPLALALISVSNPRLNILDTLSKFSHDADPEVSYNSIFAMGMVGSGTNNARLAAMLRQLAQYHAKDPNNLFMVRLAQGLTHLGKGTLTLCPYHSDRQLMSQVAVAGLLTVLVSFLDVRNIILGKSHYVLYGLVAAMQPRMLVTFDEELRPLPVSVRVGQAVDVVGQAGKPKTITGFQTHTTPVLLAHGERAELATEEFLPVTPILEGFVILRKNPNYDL
Chain of USP14 (P35998 whole entry partner): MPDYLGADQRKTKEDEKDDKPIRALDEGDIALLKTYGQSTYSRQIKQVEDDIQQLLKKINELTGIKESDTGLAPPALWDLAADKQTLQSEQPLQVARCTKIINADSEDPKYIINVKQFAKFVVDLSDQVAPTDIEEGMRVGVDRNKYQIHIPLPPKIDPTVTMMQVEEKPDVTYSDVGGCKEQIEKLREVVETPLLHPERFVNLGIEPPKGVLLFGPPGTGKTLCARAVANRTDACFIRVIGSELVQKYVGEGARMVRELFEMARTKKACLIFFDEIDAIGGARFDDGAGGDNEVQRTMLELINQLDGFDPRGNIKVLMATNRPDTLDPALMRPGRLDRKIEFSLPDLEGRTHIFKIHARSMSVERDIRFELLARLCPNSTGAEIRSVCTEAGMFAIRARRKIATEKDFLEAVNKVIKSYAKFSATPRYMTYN

Row | IC50 [nM] | SMILES
1 | 1000 to 5000 | CCNC(=O)Cc1nc(N(C)C2CC2)c2c3c(sc2n1)CCCC3 [Compound 34, 2-[4-(Cyclopropyl-methyl-amino)-5,67,8-tetrahydro-benzo[4,5]thieno[2,3-d]pyrimidin-2-yl]-N-ethyl-acetamide]
2 | 1000 to 5000 | CN(c1nc(CC(=O)NCCC(C)(C)O)nc2sc3c(c12)CCCC3)C1CC1 [Compound 35, 2-[4-(Cyclopropyl-methyl-amino)-5,6,7,8-tetrahydro-benzo[4,5]thieno[2,3-d]pyrimidin-2-yl]-N-(3-hydroxy-3-methyl-butyl)-acetamide]
3 | < 1000 | CN(c1nc(CC(=O)N2CCC(CO)C2)nc2sc3c(c12)CCCC3)C1CC1 (centres unmarked) [Compound 36, 2-[4-(Cyclopropyl-methyl-amino)-5,6,7,8-tetrahydro-benzo[4,5]thieno[2,3-d]pyrimidin-2-yl]-1-(3-hydroxymethyl-pyrrolidin-1-yl)-ethanone]
4 | < 1000 | CN(c1nc(CC(=O)N2CC[C@@H](C(C)(C)O)C2)nc2sc3c(c12)CCCC3)C1CC1 [Compound 37, 2-[4-(Cyclopropyl-methyl-amino)-5,6,7,8-tetrahydro-benzo[4,5]thieno[2,3-d]pyrimidin-2-yl]-1-[(R)-3-(1-hydroxy-1-methyl-ethyl)-pyrrolidin-1-yl]-ethanone]
5 | < 1000 | CN(c1nc(CC(=O)N2CCCC2C(N)=O)nc2sc3c(c12)CCCC3)C1CC1 (centres unmarked) [Compound 38, 1-(2-(4-(Cyclopropyl(methyl)amino)-5,6,7,8-tetrahydrobenzo[4,5]thieno[2,3-d]pyrimidin-2-yl)acetyl)pyrrolidine-2-carboxamide]
6 | < 1000 | CN(c1nc(CC(=O)N2CCCC2CO)nc2sc3c(c12)CCCC3)C1CC1 (centres unmarked) [Compound 39, 2-[4-(Cyclopropyl-methyl-amino)-5,6,7,8-tetrahydro-benzo[4,5]thieno[2,3-d]pyrimidin-2-yl]-1-(2-hydroxymethyl-pyrrolidin-1-yl)-ethanone]
7 | > 5000 | CCOC(=O)Cc1nc(N(C)CC)c2c3c(sc2n1)CCCC3 [Compound 40, [4-(Ethyl-methyl-amino)-5,6,7,8-tetrahydro-benzo[4,5]thieno[2,3-d]pyrimidin-2-yl]-acetic acid ethyl ester]
8 | > 5000 | CCOC(=O)Cc1nc(N(C)C(C)C)c2c3c(sc2n1)CCCC3 [Compound 41, [4-(Isopropyl-methyl-amino)-5,6,7,8-tetrahydro-benzo[4,5]thieno[2,3-d]pyrimidin-2-yl]-acetic acid ethyl ester]
9 | > 5000 | CN(C)C(=O)Cc1nc(N2CCCC2)c2c3c(sc2n1)CCCC3 [Compound 42, N,N-Dimethyl-2-(4-pyrrolidin-1-yl-5,6,7,8-tetrahydro-benzo[4,5]thieno[2,3-d]pyrimidin-2-yl)-acetamide]
10 | 1000 to 5000 | CN(C)C(=O)Cc1nc(N(C)C)c2c3c(sc2n1)CCCC3 [Compound 43, 2-(4-Dimethylamino-5,6,7,8-tetrahydro-benzo[4,5]thieno[2,3-d]pyrimidin-2-yl)-N,N-dimethyl-acetamide]
11 | > 5000 | CN(C)C(=O)Cc1nc(N2CCC2)c2c3c(sc2n1)CCCC3 [Compound 44, 2-(4-(Azetidin-1-yl)-5,6,7,8-tetrahydrobenzo[4,5]thieno[2,3-d]pyrimidin-2-yl)-N,N-dimethylacetamide]
12 | > 5000 | CCN(C)c1nc(CC(=O)O)nc2sc3c(c12)CCCC3 [Compound 45, [4-(Ethyl-methyl-amino)-5,6,7,8-tetrahydro-benzo[4,5]thieno[2,3-d]pyrimidin-2-yl]-acetic acid]
13 | > 5000 | CC(C)N(C)c1nc(CC(=O)O)nc2sc3c(c12)CCCC3 [Compound 46, [4-(Isopropyl-methyl-amino)-5,6,7,8-tetrahydro-benzo[4,5]thieno[2,3-d]pyrimidin-2-yl]-acetic acid]
14 | 1000 to 5000 | CN(c1nc(CCC(=O)O)nc2sc3c(c12)CCCC3)C1CC1 [Compound 47, 3-[4-(Cyclopropyl-methyl-amino)-5,6,7,8-tetrahydro-[1]benzothiopheno[2,3-d]pyrimidin-2-yl]-propionic acid]
15 | 1000 to 5000 | CN(C)C(=O)CCc1nc(N(C)C2CC2)c2c3c(sc2n1)CCCC3 [Compound 48, 3-[4-(Cyclopropyl-methyl-amino)-5,6,7,8-tetrahydro-[1]benzothiopheno[2,3-d]pyrimidin-2-yl]-N,N-dimethyl-propionamide]
16 | 1000 to 5000 | CN(c1nc(CO)nc2sc3c(c12)CCCC3)C1CC1 [Compound 49, [4-(Cyclopropyl-methyl-amino)-5,6,7,8-tetrahydro-benzo[4,5]thieno[2,3-d]pyrimidin-2-yl]-methanol]
17 | > 5000 | CN(c1nc(COc2cccnc2)nc2sc3c(c12)CCCC3)C1CC1 [Compound 50, Cyclopropyl-methyl-[2-(pyridine-3-yloxymethyl)-5,6,7,8-tetrahydro-benzo[4,5]thieno[2,3-d]pyrimidin-4-yl]-amine]
18 | 1000 to 5000 | CN(c1nc(CC(=O)C(F)(F)F)nc2sc3c(c12)CCCC3)C1CC1 [Compound 51, 3-[4-(Cyclopropyl-methyl-amino)-5,6,7,8-tetrahydrobenzo[4,5]thieno[2,3-d]pyrimidin-2-yl]-1,1,1-trifluoro-propan-2-one]
19 | > 5000 | CN(c1nc(CC(=O)O)nc2sc3c(c12)CCCCC3)C1CC1 [Compound 52, [4-(Cyclopropyl-methyl-amino)-6,7,8,9-tetrahydro-5H-10-thia-1,3-diazabenz[a]azulen-2-yl]-acetic acid]

Second part, the compound before the results:

Row | SMILES | IC50 [nM]
20 | CN(c1nc(CC(=O)N2CCC2)nc2sc3c(c12)CCCC3)C1CC1 [Compound 15, 1-(Azetidin-1-yl)-2-(4-(cyclopropyl(methyl)amino)-5,6,7,8-tetrahydrobenzo[4,5]thieno[2,3-d]pyrimidin-2-yl)ethanone] | < 1000
21 | CN(c1nc(CC(=O)NCc2ccncc2)nc2sc3c(c12)CCCC3)C1CC1 [Compound 16] | 1000 to 5000
22 | CN(c1nc(CC(=O)NCCc2ccccn2)nc2sc3c(c12)CCCC3)C1CC1 [Compound 17] | 1000 to 5000
23 | CN(c1nc(CC(=O)NCc2ccccn2)nc2sc3c(c12)CCCC3)C1CC1 [Compound 18] | 1000 to 5000
24 | CN(c1nc(CC(=O)NCc2cccnc2)nc2sc3c(c12)CCCC3)C1CC1 [Compound 19] | 1000 to 5000
25 | CN(c1nc(CC(=O)N2CC[C@H](C(C)(C)O)C2)nc2sc3c(c12)CCCC3)C1CC1 [Compound 20, (S)-2-(4-(Cyclopropyl(methyl)amino)-5,6,7,8-tetrahydrobenzo[4,5]thieno[2,3-d]pyrimidin-2-yl)-1-(3-(2-hydroxypropan-2-yl)pyrrolidin-1-yl)ethanone] | < 1000
26 | CN(c1nc(CC(=O)Nc2ccon2)nc2sc3c(c12)CCCC3)C1CC1 [Compound 21] | 1000 to 5000
27 | CN(c1nc(CC(=O)NCCc2ccncc2)nc2sc3c(c12)CCCC3)C1CC1 [Compound 22] | > 5000
28 | CN(c1nc(CC(=O)NCCc2cccnc2)nc2sc3c(c12)CCCC3)C1CC1 [Compound 23] | 1000 to 5000
29 | CN(c1nc(CC(=O)N2CC[C@H](N(C)C)C2)nc2sc3c(c12)CCCC3)C1CC1 [Compound 24, 2-[4-(Cyclopropyl-methyl-amino)-5,6,7,8-tetrahydrobenzo[4,5]thieno[2,3-d]pyrimidin-2yl]-1-((S)-3-dimethylamino-pyrrolidin-1-yl)-ethanone] | < 1000
30 | CN(c1nc(CC(=O)N2CCC(S(C)(=O)=O)C2)nc2sc3c(c12)CCCC3)C1CC1 (centres unmarked) [Compound 25, 2-[4-(Cyclopropyl-methyl-amino)-5,6,7,8-tetrahydro-benzo[4,5]thieno[2,3-d]pyrimidin-2yl]-1-(3-methanesulfonyl-pyrrolidin-1-yl)-ethanone] | < 1000
31 | CN(c1nc(CC(=O)N2CCCCC2)nc2sc3c(c12)CCCC3)C1CC1 [Compound 26, 2-[4-(Cyclopropyl-methyl-amino)-5,6,7,8-tetrahydro-benzo[4,5]thieno[2,3-d]pyrimidin-2yl]-1-piperidin-1-yl-ethanone] | 1000 to 5000
32 | CN(c1nc(CC(=O)N2CCC(O)CC2)nc2sc3c(c12)CCCC3)C1CC1 [Compound 27, 2-[4-(Cyclopropyl-methyl-amino)-5,6,7,8-tetrahydro-benzo[4,5]thieno[2,3-d]pyrimidin-2-yl]-1-(4-hydroxy-piperidin-1-yl)-ethanone] | < 1000
33 | CC(C)NC(=O)Cc1nc(N(C)C2CC2)c2c3c(sc2n1)CCCC3 [Compound 28, 2-[4-(Cyclopropyl-methyl-amino)-5,6,7,8-tetrahydro-benzo[4,5]thieno[2,3-d]pyrimidin-2-yl]-N-isopropyl-acetamide] | 1000 to 5000
34 | CN(c1nc(CC(=O)N2CCC(O)C2)nc2sc3c(c12)CCCC3)C1CC1 (centres unmarked) [Compound 29, 2-[4-(Cyclopropyl-methyl-amino)-5,6,7,8-tetrahydro-benzo[4,5]thieno[2,3-d]pyrimidin-2-yl]-1-(3-hydroxy-pyrrolidin-1-yl)-ethanone] | < 1000
35 | CN(c1nc(CC(=O)N2CC[C@@H](N(C)C)C2)nc2sc3c(c12)CCCC3)C1CC1 [Compound 30, 2-[4-(Cyclopropyl-methyl-amino)-5,6,7,8-tetrahydro-benzo[4,5]thieno[2,3-d]pyrimidin-2-yl]-1-((R)-3-dimethylamino-pyrrolidin-1-yl)-ethanone] | < 1000
36 | CN(c1nc(CC(=O)N2CCC(C(N)=O)CC2)nc2sc3c(c12)CCCC3)C1CC1 [Compound 31, 1-{2-[4-(Cyclopropyl-methyl-amino)-5,6,7,8-tetrahydro-benzo[4,5]thieno[2,3-d]pyrimidin-2-yl]-acetyl}-piperidine-4-carboxylic acid amide] | < 1000
37 | CN(c1nc(CC(=O)N2CCC(N3CCOCC3)CC2)nc2sc3c(c12)CCCC3)C1CC1 [Compound 32, 2-[4-(Cyclopropyl-methyl-amino)-5,6,7,8-tetrahydro-benzo[4,5]thieno[2,3-d]pyrimidin-2-yl]-1-(4-morpholin-4-yl-piperidin-1-yl)-ethanone] | < 1000
38 | CN(c1nc(CC(=O)N2CCCC(O)C2)nc2sc3c(c12)CCCC3)C1CC1 (centres unmarked) [Compound 33, 2-[4-(Cyclopropyl-methyl-amino)-5,6,7,8-tetrahydro-benzo[4,5]thieno[2,3-d]pyrimidin-2-yl]-1-(3-hydroxy-piperidin-1-yl)-ethanone] | < 1000
